In paper PMC8763243, “Synthesis of Novel Suramin Analogs With Anti-Proliferative Activity via FGF1 and FGFRD2 Blockade” (Frontiers in Chemistry, 2022):
Values joined by “and” are separate entries in the source; they are usually repeats but may differ in a detail not shown here. Identical values can stand only once.

Legend:
[1] = tested on: MCF-7 cells; assay: WST-1 assay, cytotoxicity in tumorigenic cells; type: cell-based, human; conditions: for Mean (Blank 450) / Fold (mean) / Blank 450 / Fold: S8; for Fold (mean): relative to control; for Blank 450: single replicate absorbance; for Fold: single replicate relative to control; for cytotoxicity compared with suramin: MCF-7 cells, 1-100 µM, 48 h, especially at concentrations higher than 10 µM
Method: (§1) The water-soluble tetrazolium salt (WST-1) assay was performed to assess the effects of the compounds on cell proliferation and cytotoxicity. DMEM/F12 containing 10% FBS was used for the cell culture, and incubation was performed in 5% CO2 till the logarithmic growth phase was achieved. On the day before the experiment, the cells were trypsinized and seeded in a 96-well plate at a density of 5000 cells/well. For the FGF1-stimulated cell proliferation assay, the cells were then incubated for 24 h in a serum-free medium containing 0.1% bovine serum albumin (BSA). Serum-starved cells with or without a specified concentration of suramin, 14, 15, 17, 18, 21, and FGFRD2 were stimulated with 100 nM of FGF1 again for 48 h. For the purpose of the cytotoxicity assay, the cells were treated with an increased concentration of suramin and compounds 14, 17, 15, 18, and 21 (Figure 6) for 48 h. Also, 1/10 of the volume of WST-1 cell reagent was inserted in every well and maintained at 37°C for another 4 h before harvesting. There was gentle agitation of the medium in the cell culture plate for 10 min using a shaker. A Synergy 2 microplate reader (BioTek Instruments, Inc., VT, United States) was used to measure the absorbance at 450 nm. The relative absorbance was compared with the control treatment to determine the relative cell number.
(§2) […] […] The reason for the higher cytotoxicity was the presence of methyl groups on the suramin structure ([Martello et al., 2001]).
(§3) Suramin-induced neuropathy may depend on the effects on calcium (Ca^2+) homeostasis as a potential pathological mechanism, and the full or partial positive charge of the element when directly attached to the ring at each of the sulphonic groups (HSO3). These interactions exert a moderate to strong electron-withdrawing inductive effect, which may be responsible for the observed suramin cytotoxicity ([Prasetyaningrum et al., 2018]; [Von Der Ahe et al., 2018]). The cytotoxicity of the synthesized analogs was lower as there were methyl groups and no sulfonic acid groups attached to the suramin backbone. The IC50 values of the synthesized compounds in MCF-7 breast cancer cells were analyzed using SigmaPlot software.

[2] = WST-1 assay, cytotoxicity in tumorigenic cells; type: cell-based, human; conditions: human; MCF-7 cells, 48 h, SigmaPlot; read-out: estimated IC50 (cytotoxicity)
Method: as §1, §2, §3

[3] = WST-1 assay, cytotoxicity in normal breast epithelial cell line (non-tumorigenic); type: cell-based; conditions: human; non-tumorigenic MCF-10A cells; read-out: estimated IC50 (cytotoxicity)
Method: as §1
In order to gain some insight about the selectivity of the compounds between tumorigenic and non-tumorigenic cells, the cytotoxicity was also being evaluated against normal breast cell lines by examining the cytotoxicity of suramin and its derivatives, compounds 15, 18, and 21, in a normal breast epithelial cell line (non-tumorigenic), MCF-10A. […] Compared to their cytotoxicity in tumorigenic MCF-7 cells (Figure 6), the estimated IC50 values in MCF-10A were higher than those in MCF-7 cells. […] However, the estimated IC50 value of suramin and its derivatives in both non-tumorigenic MCF-10A and tumorigenic MCF-7 cells were over 100 μM. The effective concentrations of suramin and its derivatives to attenuate FGF1-stimulated cell proliferation in MCF-7 cells were around 1 μM (Figure 5), which is non-toxic concentration to both MCF-7 cells and MCF-10A cells. […] Therefore, in addition to the specificity of each drug, the selectivity of suramin and its derivatives to disrupt the FGF1/FGFR-mediated breast cancer growth might rely on the overexpression or amplification of FGFR2 in breast cancer cells, but not in normal cells, and the secreted FGF1 ligand by autocrine or paracrine effects from cancer cells or their surrounding stroma cells or adipocytes (tumor microenvironment). The statistical data for the cytotoxicity are shown in Supplementary Figure S8.

[4] = target: T1, FGF1 (Homo sapiens, UniProt P05230); assay: Fluorescence spectroscopy binding constant of FGF1 and suramin derivatives; conditions: fluorescence quenching, 5 µM FGF1, non-linear regression with Stern–Volmer equation, pH 6.5
T1 construct: made in house
Method: The binding constant Kd was calculated for FGF1 and the five derivatives in a buffer containing 10% D2O, 50 mM AMS, 20 mM phosphate buffer, and 50 mM NaCl at pH 6.5 using an F-2500 Hitachi fluorescence spectrophotometer.
[…] has tremendous significance for biochemical application because it provides valuable knowledge about the probability of quencher activity. The anti-mitogenic activity of the five compounds was achieved by the same mechanism in which suramin inhibits the mitogenic activity of FGF1. A non-linear regression curve was plotted for the relative intensities of activity versus drug concentration using the Stern–Volmer equation (Eq. 1). log(F0−F)/F=logK+nlog[Q], (1)
where F0 represents the fluorescence intensity in the absence of the compounds, and F represents the fluorescence intensity in the presence of the [Q] concentration of the compounds.
Increasing concentrations of these five suramin derivatives were added to a solution containing 5 µM FGF1. A reduction in the fluorescence intensity was reported for all five suramin derivatives. The Stern–Volmer equation was used to calculate the binding constant between FGF1 and compounds 14, 15, 17, 18, and 21 for relative intensities versus the total concentration in a non-linear regression curve.

[5] = tested on: MCF-7 cells; assay: WST-1 assay, FGF1-stimulated cell proliferation; type: cell-based, human; conditions: serum-starved MCF-7, 100 nM FGF1, 100 nM, 500 nM and 1 µM of test substance, 48 h
Method: as §1
Cell proliferation was measured using the WST-1 assay. […]

T1 sequence (P05230 whole entry): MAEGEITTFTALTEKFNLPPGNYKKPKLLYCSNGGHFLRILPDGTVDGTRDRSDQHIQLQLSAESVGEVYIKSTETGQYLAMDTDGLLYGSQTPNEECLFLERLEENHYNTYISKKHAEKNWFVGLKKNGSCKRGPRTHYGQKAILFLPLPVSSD

Kd [4] [µM] | Compound | Mean (Blank 450) ([1]; 1 uM) | Fold (mean) ([1]; 1 uM) | Blank 450 ([1]; 1 uM) | Fold ([1]; 1 uM) | Mean (Blank 450) ([1]; 5 uM) | Fold (mean) ([1]; 5 uM) | Blank 450 ([1]; 5 uM) | Fold ([1]; 5 uM) | Mean (Blank 450) ([1]; 10 uM) | Fold (mean) ([1]; 10 uM) | Blank 450 ([1]; 10 uM) | Fold ([1]; 10 uM) | Mean (Blank 450) ([1]; 50 uM) | Mean (Blank 450) ([1]; 100 uM) | Fold (mean) ([1]; 100 uM) | Blank 450 ([1]; 100 uM) | Fold ([1]; 100 uM) | cytotoxicity compared with suramin [1] | IC50 at 48 h [2] [µM] | other results
 | Cc1ccc(C(=O)Nc2ccc(S(=O)(=O)O)c3cc(S(=O)(=O)O)cc(S(=O)(=O)O)c23)cc1NC(=O)c1cccc(NC(=O)Nc2cccc(C(=O)Nc3cc(C(=O)Nc4ccc(S(=O)(=O)O)c5cc(S(=O)(=O)O)cc(S(=O)(=O)O)c45)ccc3C)c2)c1 [suramin] | 1.211 | 1.04 | 1.289 and 1.186 and 1.173 and 1.197 | 1.106 and 1.018 and 1.007 and 1.027 | 1.160 | 1.00 | 1.137 and 1.217 and 1.147 and 1.138 | 0.976 and 1.044 and 0.984 and 0.977 | 1.116 | 0.96 | 1.187 and 1.064 and 1.159 and 1.052 | 1.019 and 0.913 and 0.995 and 0.903 | 1.004 | 0.817 | 0.70 | 0.795 and 0.82 and 0.838 and 0.816 | 0.682 and 0.704 and 0.719 and 0.700 | highest among all the analogs | > 100 | Fold (mean) ([1]; 50 uM): 0.86; Blank 450 ([1]; 50 uM): 0.936 and 0.988 and 1.088 and 1.004; Fold ([1]; 50 uM): 0.803 and 0.848 and 0.934 and 0.862; IC50 at 48 h [3]: 222 ± 2.4 µM
15.9 | O=C(Nc1ccc(C(=O)Nc2cc(S(=O)(=O)O)cc3cc(S(=O)(=O)O)cc(S(=O)(=O)O)c23)s1)Nc1ccc(C(=O)Nc2cc(S(=O)(=O)O)cc3cc(S(=O)(=O)O)cc(S(=O)(=O)O)c23)s1 [Compound 21, Sodium 8,8'-((5,5'-(carbonylbis (azanediyl))bis (thiophene-5,2-diyl-2-carbonyl))bis (azanediyl)) bis (naphthalene-1,3,6-trisulfonate)] | 1.167 | 1.00 | 1.107 and 1.215 and 1.169 and 1.177 | 0.950 and 1.043 and 1.003 and 1.010 | 1.178 | 1.01 | 1.145 and 1.151 and 1.183 and 1.233 | 0.983 and 0.988 and 1.015 and 1.058 | 1.163 | 1.00 | 1.136 and 1.167 and 1.187 and 1.163 | 0.975 and 1.002 and 1.019 and 0.998 | 1.124 | 1.021 | 0.88 | 1.046 and 1.075 and 0.916 | 0.898 and 0.923 and 0.786 | less toxic | > 100 | Fold (mean) ([1]; 50 uM): 0.96; Blank 450 ([1]; 50 uM): 1.137 and 1.128 and 1.113 and 1.119; Fold ([1]; 50 uM): 0.976 and 0.968 and 0.955 and 0.960; IC50 at 48 h [3]: 628 ± 1.45 µM
13.7 | O=C(Nc1ccc(C(=O)Nc2cccc3cc(S(=O)(=O)O)ccc23)cc1)Nc1ccc(C(=O)Nc2cccc3cc(S(=O)(=O)O)ccc23)cc1 [Compound 14, Sodium 5,5'-((4,4'-(carbonylbis (azanediyl))bis (benzoyl))bis (azanediyl)) bis (naphthalene-2-sulfonate)] | 0.231 | 1.03 | 0.248 and 0.227 and 0.205 and 0.242 | 1.113 and 1.019 and 0.920 and 1.086 | 0.225 | 1.01 | 0.219 and 0.241 and 0.23 and 0.208 | 0.983 and 1.082 and 1.033 and 0.934 | 0.211 | 0.95 | 0.206 and 0.193 and 0.225 and 0.218 | 0.925 and 0.866 and 1.010 and 0.979 |  | 0.198 | 0.89 | 0.209 and 0.195 and 0.181 and 0.208 | 0.938 and 0.875 and 0.813 and 0.934 | less toxic | > 100 | Mean (Blank 450) ([1]; 0.5 uM): 0.233; Fold (mean) ([1]; 0.5 uM): 1.04; Blank 450 ([1]; 0.5 uM): 0.228 and 0.253 and 0.244 and 0.205; Fold ([1]; 0.5 uM): 1.024 and 1.136 and 1.095 and 0.920; effect on FGF1-stimulated cell proliferation [5]: more potent inhibitory effects
10.1 | O=C(Nc1ccc(C(=O)Nc2ccc(C(=O)Nc3cccc4cc(S(=O)(=O)O)ccc34)cc2)cc1)Nc1ccc(C(=O)Nc2ccc(C(=O)Nc3cccc4cc(S(=O)(=O)O)ccc34)cc2)cc1 [Compound 17, Sodium 5,5'-((4,4'-((4,4'-(carbonylbis (azanediyl))bis (benzoyl))bis (azanediyl))bis (benzoyl))bis(azanediyl)) bis (naphthalene-2-sulfonate)] | 0.226 | 1.01 | 0.235 and 0.232 and 0.211 and 0.225 | 1.055 and 1.042 and 0.947 and 1.010 | 0.222 | 1.00 | 0.201 and 0.215 and 0.233 and 0.239 | 0.902 and 0.965 and 1.046 and 1.073 | 0.220 | 0.99 | 0.218 and 0.227 and 0.225 and 0.209 | 0.979 and 1.019 and 1.010 and 0.938 |  | 0.208 | 0.93 | 0.197 and 0.209 and 0.218 and 0.206 | 0.884 and 0.938 and 0.979 and 0.925 | less toxic | > 100 | Mean (Blank 450) ([1]; 0.5 uM): 0.233; Fold (mean) ([1]; 0.5 uM): 1.04; Blank 450 ([1]; 0.5 uM): 0.241 and 0.231 and 0.216 and 0.243; Fold ([1]; 0.5 uM): 1.082 and 1.037 and 0.970 and 1.091; effect on FGF1-stimulated cell proliferation [5]: more potent inhibitory effects
